Reference: ChEMBL document CHEMBL3588744, “Structure-Based Optimization of Naphthyridones into Potent ATAD2 Bromodomain Inhibitors” (J Med Chem, 2015)

Assays:
[1] = Distribution coefficient, log D of the compound at pH 7.4 by chromatographic method; type: physicochemical; conditions: octanol/water
[2] = biological target: ATPase family AAA domain-containing protein 2B (Homo sapiens, UniProt Q9ULI0); assay: Binding affinity to ATAD2B (unknown origin) by BROMOscan panel based assay
[3] = biological target: Transcription initiation factor TFIID subunit 1-like (Homo sapiens, UniProt Q8IZX4); assay: Binding affinity to TAF1L (unknown origin) by BROMOscan panel based assay
Peregrin = biological target: T1, Peregrin (Homo sapiens, UniProt P55201); assay: Binding affinity to BRPF1 (unknown origin) by BROMOscan panel based assay
T1 sequence (P55201 whole entry): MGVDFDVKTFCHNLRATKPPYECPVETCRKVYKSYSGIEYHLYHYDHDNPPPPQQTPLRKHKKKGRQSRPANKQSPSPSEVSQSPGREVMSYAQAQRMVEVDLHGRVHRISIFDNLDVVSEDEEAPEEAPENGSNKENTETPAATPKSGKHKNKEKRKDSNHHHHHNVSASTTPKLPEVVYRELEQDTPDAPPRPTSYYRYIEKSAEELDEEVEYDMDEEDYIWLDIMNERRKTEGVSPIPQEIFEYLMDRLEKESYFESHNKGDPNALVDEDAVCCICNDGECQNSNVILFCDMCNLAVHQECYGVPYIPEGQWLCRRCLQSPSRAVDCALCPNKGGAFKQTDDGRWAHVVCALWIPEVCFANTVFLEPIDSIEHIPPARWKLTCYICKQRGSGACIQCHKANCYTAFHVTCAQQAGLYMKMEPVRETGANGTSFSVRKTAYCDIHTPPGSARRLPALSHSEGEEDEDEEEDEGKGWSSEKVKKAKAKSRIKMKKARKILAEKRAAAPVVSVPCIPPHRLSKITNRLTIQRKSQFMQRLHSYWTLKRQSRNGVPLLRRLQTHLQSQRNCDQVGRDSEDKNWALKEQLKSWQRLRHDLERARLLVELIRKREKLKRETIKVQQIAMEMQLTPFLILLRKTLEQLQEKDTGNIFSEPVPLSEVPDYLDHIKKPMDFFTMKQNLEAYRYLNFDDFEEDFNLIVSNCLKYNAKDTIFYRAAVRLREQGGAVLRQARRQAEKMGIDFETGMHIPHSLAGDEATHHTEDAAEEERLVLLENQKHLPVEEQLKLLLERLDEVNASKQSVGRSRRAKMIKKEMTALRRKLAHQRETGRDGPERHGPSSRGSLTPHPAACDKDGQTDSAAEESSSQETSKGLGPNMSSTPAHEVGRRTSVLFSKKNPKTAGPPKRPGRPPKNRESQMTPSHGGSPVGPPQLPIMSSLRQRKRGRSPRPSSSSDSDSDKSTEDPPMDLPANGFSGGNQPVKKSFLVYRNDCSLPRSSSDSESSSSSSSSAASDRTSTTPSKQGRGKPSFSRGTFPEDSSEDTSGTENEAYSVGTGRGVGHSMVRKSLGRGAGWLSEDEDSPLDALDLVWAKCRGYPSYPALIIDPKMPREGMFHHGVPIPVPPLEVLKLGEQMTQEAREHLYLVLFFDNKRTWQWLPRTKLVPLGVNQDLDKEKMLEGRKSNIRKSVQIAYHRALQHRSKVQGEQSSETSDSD

[4] = biological target: Chromatin remodeling regulator CECR2 (Homo sapiens, UniProt Q9BXF3); assay: Binding affinity to CECR2 (unknown origin) by BROMOscan panel based assay
[5] = biological target: T2, Bromodomain-containing protein 2 (Homo sapiens, UniProt P25440); assay: Binding affinity to BRD2 in human HUT78 cells incubated for 45 mins by mass spectrometry based bromosphere chemoproteomic assay; type: cell-based
[6] = biological target: T3, Bromodomain-containing protein 4 (Homo sapiens, UniProt O60885); assay: Binding affinity to BRD4 in human HUT78 cells incubated for 45 mins by mass spectrometry based bromosphere chemoproteomic assay; type: cell-based
[7] = biological target: T4, Bromodomain-containing protein 9 (Homo sapiens, UniProt Q9H8M2); assay: Binding affinity to BRD9 in human HUT78 cells incubated for 45 mins by mass spectrometry based bromosphere chemoproteomic assay; type: cell-based
T4 sequence (Q9H8M2 whole entry): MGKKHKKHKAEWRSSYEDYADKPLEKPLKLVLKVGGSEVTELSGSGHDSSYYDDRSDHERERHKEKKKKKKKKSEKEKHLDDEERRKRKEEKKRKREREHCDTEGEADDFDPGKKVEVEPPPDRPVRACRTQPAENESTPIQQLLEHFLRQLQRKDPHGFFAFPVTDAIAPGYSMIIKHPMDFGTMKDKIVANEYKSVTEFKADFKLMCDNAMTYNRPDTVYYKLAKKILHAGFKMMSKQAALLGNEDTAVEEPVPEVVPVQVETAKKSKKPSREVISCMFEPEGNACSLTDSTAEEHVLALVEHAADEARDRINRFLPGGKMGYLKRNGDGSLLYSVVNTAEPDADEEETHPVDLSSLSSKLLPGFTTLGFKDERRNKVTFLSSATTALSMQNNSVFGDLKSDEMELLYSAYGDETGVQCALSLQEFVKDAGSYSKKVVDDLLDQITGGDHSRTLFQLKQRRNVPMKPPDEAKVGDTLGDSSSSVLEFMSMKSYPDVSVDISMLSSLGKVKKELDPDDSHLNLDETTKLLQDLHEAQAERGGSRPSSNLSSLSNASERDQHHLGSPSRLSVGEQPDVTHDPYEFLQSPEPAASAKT

[8] = biological target: Histone acetyltransferase KAT2A (Homo sapiens, UniProt Q92830); assay: Binding affinity to KAT2A in human HUT78 cells incubated for 45 mins by mass spectrometry based bromosphere chemoproteomic assay; type: cell-based
[9] = biological target: Histone acetyltransferase KAT2B (Homo sapiens, UniProt Q92831); assay: Binding affinity to KAT2B in human HUT78 cells incubated for 45 mins by mass spectrometry based bromosphere chemoproteomic assay; type: cell-based
Protein polybromo-1 = Protein polybromo-1 (Homo sapiens, UniProt Q86U86); assay: Binding affinity to PBRM1 in human HUT78 cells incubated for 45 mins by mass spectrometry based bromosphere chemoproteomic assay; type: cell-based
[10] = biological target: SWI/SNF-related matrix-associated actin-dependent regulator of chromatin subfamily A member 4 (Homo sapiens, UniProt P51532); assay: Binding affinity to SMARCA4 in human HUT78 cells incubated for 45 mins by mass spectrometry based bromosphere chemoproteomic assay; type: cell-based
[11] = biological target: T5, Bromodomain-containing protein 3 (Homo sapiens, UniProt Q15059); assay: Binding affinity to BRD3 containing BD1 bromodomains (unknown origin) by TR-FRET assay
[12] = biological target: T3, Bromodomain-containing protein 4; assay: Binding affinity to BRD4 containing BD1 bromodomains (unknown origin) by TR-FRET assay
[13] = biological target: T2, Bromodomain-containing protein 2; assay: Binding affinity to BRD2 containing BD2 bromodomains (unknown origin) by TR-FRET assay
[14] = biological target: T5, Bromodomain-containing protein 3; assay: Binding affinity to BRD3 containing BD2 bromodomains (unknown origin) by TR-FRET assay
[15] = biological target: Bromodomain-containing protein 4 (Homo sapiens, UniProt O60885, Y390A)
physchem = conditions: phosphate buffered saline, pH 7.4, solubility
Description: Solubility of the compound in phosphate buffered saline at pH 7.4 after 1 hr by CLND method

T5 sequence (Q15059 whole entry): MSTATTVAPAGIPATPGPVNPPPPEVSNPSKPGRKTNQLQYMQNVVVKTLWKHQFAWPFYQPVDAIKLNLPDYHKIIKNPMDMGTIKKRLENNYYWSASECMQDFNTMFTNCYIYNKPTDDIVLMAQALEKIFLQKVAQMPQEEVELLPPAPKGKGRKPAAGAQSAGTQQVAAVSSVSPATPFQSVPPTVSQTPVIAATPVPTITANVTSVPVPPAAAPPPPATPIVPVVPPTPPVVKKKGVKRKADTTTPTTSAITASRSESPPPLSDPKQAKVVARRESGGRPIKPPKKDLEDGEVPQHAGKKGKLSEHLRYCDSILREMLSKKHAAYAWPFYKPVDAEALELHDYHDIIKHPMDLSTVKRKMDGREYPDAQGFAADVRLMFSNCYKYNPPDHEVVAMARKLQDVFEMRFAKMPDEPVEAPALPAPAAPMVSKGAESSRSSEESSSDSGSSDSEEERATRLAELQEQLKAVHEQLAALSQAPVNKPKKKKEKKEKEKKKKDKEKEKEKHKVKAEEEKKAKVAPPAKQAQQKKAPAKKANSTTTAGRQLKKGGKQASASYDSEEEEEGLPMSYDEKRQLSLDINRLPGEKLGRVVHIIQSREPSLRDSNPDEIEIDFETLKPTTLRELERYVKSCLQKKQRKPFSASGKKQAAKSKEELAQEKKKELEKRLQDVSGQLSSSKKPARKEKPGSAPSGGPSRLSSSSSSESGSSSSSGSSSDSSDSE
T2 sequence (P25440 whole entry): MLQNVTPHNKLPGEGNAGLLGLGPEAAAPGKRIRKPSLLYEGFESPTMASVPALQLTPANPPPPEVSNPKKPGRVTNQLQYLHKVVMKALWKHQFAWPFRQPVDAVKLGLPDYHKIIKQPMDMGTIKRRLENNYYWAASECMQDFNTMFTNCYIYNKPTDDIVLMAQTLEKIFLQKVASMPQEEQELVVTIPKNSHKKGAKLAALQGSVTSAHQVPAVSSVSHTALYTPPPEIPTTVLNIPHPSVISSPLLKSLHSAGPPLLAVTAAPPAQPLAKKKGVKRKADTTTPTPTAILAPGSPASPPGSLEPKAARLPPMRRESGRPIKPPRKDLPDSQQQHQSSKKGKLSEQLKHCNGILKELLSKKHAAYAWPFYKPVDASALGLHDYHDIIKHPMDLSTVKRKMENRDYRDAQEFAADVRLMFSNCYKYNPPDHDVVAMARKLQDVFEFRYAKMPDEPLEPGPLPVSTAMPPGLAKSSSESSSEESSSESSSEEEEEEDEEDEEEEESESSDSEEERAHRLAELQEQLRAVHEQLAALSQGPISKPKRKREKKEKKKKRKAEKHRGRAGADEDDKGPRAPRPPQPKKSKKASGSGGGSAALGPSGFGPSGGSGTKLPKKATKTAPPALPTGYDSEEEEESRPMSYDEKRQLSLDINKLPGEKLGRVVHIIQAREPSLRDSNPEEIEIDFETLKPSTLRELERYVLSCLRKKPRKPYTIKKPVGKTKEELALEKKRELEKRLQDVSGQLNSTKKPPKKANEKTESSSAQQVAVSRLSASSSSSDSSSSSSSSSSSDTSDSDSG
Protein polybromo-1, sequence (Q86U86 whole entry): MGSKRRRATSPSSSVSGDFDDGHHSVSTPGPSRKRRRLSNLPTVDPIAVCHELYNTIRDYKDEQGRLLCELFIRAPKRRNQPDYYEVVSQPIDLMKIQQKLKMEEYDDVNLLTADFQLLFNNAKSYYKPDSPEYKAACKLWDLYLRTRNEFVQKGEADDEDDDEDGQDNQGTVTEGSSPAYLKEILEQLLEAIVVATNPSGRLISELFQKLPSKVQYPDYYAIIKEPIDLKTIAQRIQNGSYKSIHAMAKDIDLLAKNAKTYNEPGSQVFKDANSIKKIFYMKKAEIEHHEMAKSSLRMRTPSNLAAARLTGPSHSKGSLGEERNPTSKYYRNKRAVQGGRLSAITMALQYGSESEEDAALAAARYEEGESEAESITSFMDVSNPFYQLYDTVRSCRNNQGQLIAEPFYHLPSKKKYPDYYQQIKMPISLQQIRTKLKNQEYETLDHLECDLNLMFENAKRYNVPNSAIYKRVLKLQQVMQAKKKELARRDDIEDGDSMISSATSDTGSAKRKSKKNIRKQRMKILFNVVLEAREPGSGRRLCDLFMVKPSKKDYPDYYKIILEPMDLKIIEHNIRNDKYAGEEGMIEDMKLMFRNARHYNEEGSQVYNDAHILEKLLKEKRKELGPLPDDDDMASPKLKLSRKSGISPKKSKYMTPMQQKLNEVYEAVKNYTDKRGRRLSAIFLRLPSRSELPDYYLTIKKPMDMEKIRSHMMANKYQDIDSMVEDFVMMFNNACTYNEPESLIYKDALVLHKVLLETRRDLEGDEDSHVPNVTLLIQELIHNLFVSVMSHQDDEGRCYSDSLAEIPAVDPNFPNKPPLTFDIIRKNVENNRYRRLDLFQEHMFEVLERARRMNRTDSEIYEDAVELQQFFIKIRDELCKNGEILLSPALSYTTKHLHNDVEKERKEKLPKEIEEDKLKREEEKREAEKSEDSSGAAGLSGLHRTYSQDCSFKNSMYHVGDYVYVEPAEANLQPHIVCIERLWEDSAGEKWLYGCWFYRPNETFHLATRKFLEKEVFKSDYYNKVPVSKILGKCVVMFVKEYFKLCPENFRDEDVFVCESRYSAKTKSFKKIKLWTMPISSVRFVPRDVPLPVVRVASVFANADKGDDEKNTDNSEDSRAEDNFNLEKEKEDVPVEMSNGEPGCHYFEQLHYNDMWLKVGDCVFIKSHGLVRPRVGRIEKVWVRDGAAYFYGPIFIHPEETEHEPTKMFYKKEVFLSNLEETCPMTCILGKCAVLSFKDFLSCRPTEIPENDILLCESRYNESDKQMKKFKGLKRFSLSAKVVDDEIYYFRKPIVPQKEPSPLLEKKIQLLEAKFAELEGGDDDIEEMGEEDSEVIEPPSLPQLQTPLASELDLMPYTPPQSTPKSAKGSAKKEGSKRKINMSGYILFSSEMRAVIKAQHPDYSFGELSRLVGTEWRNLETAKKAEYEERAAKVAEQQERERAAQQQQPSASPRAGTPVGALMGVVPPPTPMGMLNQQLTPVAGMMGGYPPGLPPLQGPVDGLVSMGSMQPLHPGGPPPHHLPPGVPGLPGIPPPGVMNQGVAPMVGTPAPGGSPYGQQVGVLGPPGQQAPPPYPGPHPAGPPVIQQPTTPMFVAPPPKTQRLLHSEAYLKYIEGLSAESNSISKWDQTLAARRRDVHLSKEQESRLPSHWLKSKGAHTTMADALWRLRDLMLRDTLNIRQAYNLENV
SWI/SNF-related matrix-associated actin-dependent regulator of chromatin subfamily A member 4, sequence (P51532 whole entry): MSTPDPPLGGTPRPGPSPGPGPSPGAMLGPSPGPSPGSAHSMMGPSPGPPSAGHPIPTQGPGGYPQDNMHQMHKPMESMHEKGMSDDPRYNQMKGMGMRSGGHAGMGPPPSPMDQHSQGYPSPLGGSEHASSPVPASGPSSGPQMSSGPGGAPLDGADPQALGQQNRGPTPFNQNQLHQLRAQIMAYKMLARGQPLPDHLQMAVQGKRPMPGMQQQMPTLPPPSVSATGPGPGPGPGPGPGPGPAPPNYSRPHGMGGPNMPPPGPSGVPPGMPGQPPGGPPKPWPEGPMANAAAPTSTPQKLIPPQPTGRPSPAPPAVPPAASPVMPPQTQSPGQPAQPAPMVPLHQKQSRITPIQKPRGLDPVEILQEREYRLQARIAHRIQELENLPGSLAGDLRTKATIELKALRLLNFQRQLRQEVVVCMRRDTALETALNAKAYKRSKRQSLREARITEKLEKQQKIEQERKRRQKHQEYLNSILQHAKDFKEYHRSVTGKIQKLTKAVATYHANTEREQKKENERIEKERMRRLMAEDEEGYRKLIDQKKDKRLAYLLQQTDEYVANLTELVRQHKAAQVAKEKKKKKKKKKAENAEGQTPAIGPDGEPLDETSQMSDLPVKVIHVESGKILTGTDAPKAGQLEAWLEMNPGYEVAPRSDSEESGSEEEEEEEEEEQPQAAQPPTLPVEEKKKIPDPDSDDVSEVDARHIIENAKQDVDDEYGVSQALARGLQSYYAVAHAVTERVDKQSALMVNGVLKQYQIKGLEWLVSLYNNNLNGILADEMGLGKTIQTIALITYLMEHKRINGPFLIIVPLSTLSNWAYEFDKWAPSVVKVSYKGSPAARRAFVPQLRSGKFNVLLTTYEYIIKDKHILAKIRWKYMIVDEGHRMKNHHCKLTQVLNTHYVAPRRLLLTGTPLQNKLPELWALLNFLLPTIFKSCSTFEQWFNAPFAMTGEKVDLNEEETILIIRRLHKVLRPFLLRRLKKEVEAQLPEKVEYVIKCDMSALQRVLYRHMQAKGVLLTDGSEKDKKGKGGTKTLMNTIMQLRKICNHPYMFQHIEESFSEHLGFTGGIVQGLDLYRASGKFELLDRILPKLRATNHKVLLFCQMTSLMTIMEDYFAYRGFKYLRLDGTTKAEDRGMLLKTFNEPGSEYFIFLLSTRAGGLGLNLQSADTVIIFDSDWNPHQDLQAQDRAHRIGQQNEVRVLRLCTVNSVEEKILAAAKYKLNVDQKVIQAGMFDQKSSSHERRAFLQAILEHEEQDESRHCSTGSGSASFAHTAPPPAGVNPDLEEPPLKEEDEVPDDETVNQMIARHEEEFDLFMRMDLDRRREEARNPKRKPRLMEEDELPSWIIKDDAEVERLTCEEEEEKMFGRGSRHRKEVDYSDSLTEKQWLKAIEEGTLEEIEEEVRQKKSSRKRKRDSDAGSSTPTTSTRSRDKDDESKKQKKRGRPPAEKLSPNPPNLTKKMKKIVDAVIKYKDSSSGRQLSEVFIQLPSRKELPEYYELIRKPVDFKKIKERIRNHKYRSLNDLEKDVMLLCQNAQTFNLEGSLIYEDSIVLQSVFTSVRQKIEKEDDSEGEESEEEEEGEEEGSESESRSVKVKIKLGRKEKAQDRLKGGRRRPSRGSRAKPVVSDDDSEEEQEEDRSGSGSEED

Cc1cncc(-c2cnc(N[C@@H]3CCN(C)C[C@H]3OCC3CCS(=O)(=O)CC3)c3[nH]c(=O)c(C)cc23)c1
chromatographic logD [1]: 2.3 | Ki [2]: 0.0398 µM | Ki [3]: 0.126 µM | Ki (Peregrin): 5.01 µM | Ki [4]: 0.794 µM | Kd [5]: 20 µM | Kd [6]: 20 µM | Kd [7]: 15.8 µM | Kd [8]: > 100 µM | Kd [9]: > 100 µM | Kd (Protein polybromo-1): > 100 µM | Kd [10]: 20 µM | IC50 [11]: > 50.1 µM | IC50 [12]: 79.4 µM | IC50 [13]: > 50.1 µM | IC50 [14]: > 50.1 µM | IC50 [15]: 79.4 µM | solubility kinetic at 1 h (physchem): ≥ 341 µM
